These are literature values, as cited in US6727227B1, “Tetrapetide revealing geroprotective effect, pharmacological substance on its basis, and the method of its application” (Obschestvo S Ogranichennoi Otvetstven-Nostiju “Klinika …, priority 2002, dated 2004).

The test system of data set [1] is experimental animals. The settings on record: cited from earlier work.
Data set [2] has as its system LAF1 strain in mice. The following applies: LAF1 mice with accelerated ageing, food-supplement; cited from earlier work.
Data set [3] has as its system mice of SAM strain. The settings on record: diet with increased amount for 7 months; cited from earlier work.
Data set [4] has as its system mice of C3H strain. The settings on record: addition to food; cited from earlier work.
Data set [5] deals with mice. The settings on record: cited from earlier work.
Data set [6] relates to Drosophila melanogaster (HEM strain). The following applies: cited from earlier work.

On to `O=C1O[C@H]([C@@H](O)CO)C(O)=C1O` [vitamin C], for which, in data set [1], the Life span result is “increase in the life span”. Regarding `Cc1cc(C(C)(C)C)c(O)c(C(C)(C)C)c1` [Ionol, 2.6-di-tert-butyl4-methylphenol], the Life span result in data set [2] is reported as “promoted an increase in the life span”.

With `N[C@@H](CS)C(=O)O` [cystein], the Life span result in data set [1] is reported as “insignificant extension in the life span”. vitamin E: the Life span entry in data set [1] is recorded as “increase in the life span”.

As for butyl hydroxytoluol, the Life span entry in data set [1] is recorded as “insignificant extension in the life span”. Consider `Oc1cccnc1` [3-hydroxypyridine], for which the Life span entry in data set [1] is recorded as “insignificant extension in the life span”. As for `CN(C)CCOC(=O)COc1ccc(Cl)cc1` [centrophenoxyn], the Life span entry in data set [1] is “insignificant extension in the life span”.

Consider `NCCC(=O)N[C@@H](Cc1cnc[nH]1)C(=O)O` [carnosine], for which, in data set [3], the Death rate result was “death rat decreased”. Turning to vitamin A, the Life span entry in data set [1] is listed as “increase in the life span”. In the case of `CCOc1ccc2c(c1)C(C)=CC(C)(C)N2` [ethoxyhin], the Life span result in data set [4] was “extended the life span”. Take `COc1ccc2[nH]cc(CCNC(C)=O)c2c1` [melatonin]: the Average life span entry in data set [5] was “A minor increase in the average life span”. The Geroprotective effect entry in data set [6] is recorded as “failed to produce a geroprotective effect”. Take `NCCS` [2-mercaptoethanolamine]: the Life span entry in data set [1] is “insignificant extension in the life span”. `CCc1nc(C)ccc1O.Cl` [2-ethyl-6-methyl-3-oxypyridine chlorhydrate]: the Life span result in data set [1] is on record as “An increase in the life span”.

Regarding `O=C(O)[C@H](O)[C@@H](O)[C@H](O)[C@H](O)CO` [gluconic acid, lactic and gluconic acids], in data set [1], the Life span entry is given as “insignificant extension in the life span”. For `N[C@@H](CCC(=O)N[C@@H](CS)C(=O)NCC(=O)O)C(=O)O` [glutathione], the Life span entry in data set [1] was “insignificant extension in the life span”.
